In patent US5212189A, “Thiadiazole or oxadiazole analogs of fenamic acids containing substituted hydroxamate side chains as antiinflammatory agents” (Warner-Lambert Company, priority 1991, dated 1993):
Read-outs that look alike come from different tables or passages of the source.

Experiments:
[1] = target: T1, 5-lipoxygenase (Rattus norvegicus, UniProt P12527); test: ARBL whole cell 5-lipoxygenase assay: inhibition of LTB4 formation in A23187-stimulated RBL-1 cells; assay type: cell-based; conditions: RBL-1 whole cells; for IC50: RIA of LTB4
T1 construct: host or cells: RBL-1 (rat basophilic leukemia)
T1 sequence (P12527 1-673): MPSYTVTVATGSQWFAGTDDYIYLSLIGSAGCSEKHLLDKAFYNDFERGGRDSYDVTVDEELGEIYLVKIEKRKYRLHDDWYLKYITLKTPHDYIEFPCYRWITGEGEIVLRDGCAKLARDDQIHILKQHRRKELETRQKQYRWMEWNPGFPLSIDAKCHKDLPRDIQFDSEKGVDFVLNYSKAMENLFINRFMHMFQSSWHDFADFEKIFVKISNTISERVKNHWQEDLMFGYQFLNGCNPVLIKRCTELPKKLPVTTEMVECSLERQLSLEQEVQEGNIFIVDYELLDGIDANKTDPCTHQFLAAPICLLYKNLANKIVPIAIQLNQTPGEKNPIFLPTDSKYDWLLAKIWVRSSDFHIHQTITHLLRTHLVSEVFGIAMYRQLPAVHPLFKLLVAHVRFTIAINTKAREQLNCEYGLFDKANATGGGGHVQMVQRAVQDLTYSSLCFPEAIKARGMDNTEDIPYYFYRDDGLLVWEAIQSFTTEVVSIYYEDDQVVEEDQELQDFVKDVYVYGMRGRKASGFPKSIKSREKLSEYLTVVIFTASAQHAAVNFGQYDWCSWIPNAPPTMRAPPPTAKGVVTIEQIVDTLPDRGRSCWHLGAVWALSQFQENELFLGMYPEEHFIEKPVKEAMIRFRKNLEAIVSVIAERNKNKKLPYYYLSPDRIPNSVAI
Procedure: (§1) ARBL/ARBC WHOLE CELL 5-LIPOXYGENASE AND CYCLOOXYGENASE ASSAYS
(§2) The rat basophilic leukemia cell line (RBL-1) was obtained from the American Type Culture Collection (Rockville, MD).
(§3) Radioimmunoassay (RIA) kits of LTB4 and PGF2α were obtained from Amersham (Arlington Heights, Ill.) and Seragen (Boston, Mass.), respectively.
(§4) RBL-1 cells are grown in suspension culture in Eagle's minimum essential medium supplemented with 12% fetal bovine serum at 37° C. in an incubator supplied with air 5% carbon dioxide. Cells are harvested by centrifugation. They are washed with cold phosphate-buffered saline, pH 7.4 (PBS; NaCl, 7.1 g; Na2 HPO4, 1.15 g; KH2 PO4, 0.2 g; and KCl, 0.2 g/L). Cells are finally suspended in PBS containing 1.0 mM calcium at a density of 2 × 10^6 cells/mL Cells are incubated and without test agent (in DMSO) (1% DMSO is without effect on arachidonic acid metabolism) for 10 minutes at room temperature. Calcium ionophore A23187 (5 μM) is added and cells are incubated for 7 minutes at 37° C. The reaction is stopped by chilling the tubes on ice for 10 minutes. Cells are separated by centrifugation and the supernatant is stored at -20° C. Aliquots (100 μL) are analyzed for LTB4 and PGF2α using radioimmunoassay kits as provided by the supplier.
(§5) Table 1 contains biochemical data for compounds of Formula I obtained from this whole cell assay as amount of inhibition at 10 μM or IC50 s which are calculated as the concentration of a test compound in micromoles (μM) causing 50% inhibition of LTB4 or PGF2α formation.

[2] = target: T2, cyclooxygenase (Rattus norvegicus, UniProt Q63921); test: ARBC whole cell cyclooxygenase assay: inhibition of PGF2α formation in A23187-stimulated RBL-1 cells; assay type: cell-based; conditions: RBL-1 whole cells; for IC50: RIA of PGF2α
T2 construct: host or cells: RBL-1 (rat basophilic leukemia)
T2 sequence (Q63921 27-602): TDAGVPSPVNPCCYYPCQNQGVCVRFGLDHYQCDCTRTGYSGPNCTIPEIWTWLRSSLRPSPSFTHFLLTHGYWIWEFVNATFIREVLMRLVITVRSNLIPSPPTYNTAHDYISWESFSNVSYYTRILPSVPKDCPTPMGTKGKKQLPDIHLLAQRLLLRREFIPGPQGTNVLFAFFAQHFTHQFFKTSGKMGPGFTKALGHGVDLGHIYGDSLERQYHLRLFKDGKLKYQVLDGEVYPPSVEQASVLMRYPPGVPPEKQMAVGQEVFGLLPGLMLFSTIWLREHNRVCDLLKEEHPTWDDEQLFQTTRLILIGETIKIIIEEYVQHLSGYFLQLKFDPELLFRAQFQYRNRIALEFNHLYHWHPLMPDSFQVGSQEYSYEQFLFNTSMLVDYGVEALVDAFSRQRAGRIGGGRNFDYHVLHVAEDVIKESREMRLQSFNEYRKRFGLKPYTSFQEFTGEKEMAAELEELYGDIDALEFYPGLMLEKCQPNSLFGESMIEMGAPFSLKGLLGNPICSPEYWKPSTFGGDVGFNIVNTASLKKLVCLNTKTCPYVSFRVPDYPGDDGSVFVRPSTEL
Procedure: as §1, §2, §3, §4, §5

[3] = read-out: ARBL, amount of inhibition of LTB4 at 10 μM
[4] = read-out: ARBC, inhibition of PGF2α at 10 μM (class symbol)
[5] = read-out: ARBL, inhibition of LTB4 at 10 μM (class symbol)

SMILES	IC50 [1]	IC50 [2]	inhibition at 10 µM [2, 4]	further results
CC(=O)N(O)C(C)c1cccc(Nc2ccccc2-c2n[nH]c(=S)o2)c1C (stereo not shown) [Example 8, N-[1-[3-[[2-(4,5-dihydro-5 thioxo 1,3,4-oxadiazol-2 yl)phenyl]amino]-2 methylphenyl]ethyl]-N-hydroxyacetamide]	–	–	< 40%	inhibition at 10 µM [1, 3]: 66%
CC(=O)N(O)C(C)c1c(C)ccc(Nc2ccccc2-c2n[nH]c(=S)o2)c1C (stereo not shown) [Example 9, N-[1-[3-[[2-(4,5-dihydro-5-thioxo 1,3,4-oxadiazol-2 yl)phenyl]amino]-2,6 dimethylphenyl]ethyl]-N-hydroxyacetamide]	5930 nM	> 10000 nM	–	–
CC(=O)N(O)C(C)c1cccc(Nc2ccccc2-c2n[nH]c(=S)o2)c1 (stereo not shown) [Example 10, N-[1-[3-[[2-(4,5-dihydro-5-thioxo-1,3,4-oxadiazol-2-yl)phenyl]amino]phenyl]ethyl]-N-hydroxyacetamide]	–	–	< 40%	inhibition at 10 µM [1, 5]: < 40%
CCOC(=O)N(O)C(C)c1cccc(Nc2ccccc2-c2n[nH]c(=S)o2)c1Cl (stereo not shown) [Example 11, Ethyl ester of [1-[2-chloro-3-[[2-(4,5-dihydro-5-thioxo-1,3,4 oxadiazol-2-yl)phenyl]amino]phenyl]-ethyl]hydroxycarbamic acid]	1140 nM	910 nM	–	–
CNC(=O)N(O)C(C)c1cccc(Nc2ccccc2-c2n[nH]c(=S)o2)c1Cl (stereo not shown) [Example 12, N-[1-[2-chloro-3-[[(4,5-dihydro-5-thioxo-1,3,4-oxadiazol-2-yl)phenyl]amino]phenyl]ethyl]-N-hydroxy-N'-methylurea]	–	–	–	inhibition at 10 µM [1, 5]: < 40%; inhibition at 10 µM ([2]; read-out: ARBC, amount of inhibition of PGF2α at 10 μM): 100%
CC(=O)N(O)C(C)c1cccc(Nc2ccccc2-c2n[nH]c(=O)o2)c1 (stereo not shown) [Example 14, N-[1-[3-[[2-(4,5-dihydro-5-oxo-1,3,4-oxadiazol-2-yl)phenyl]amino]phenyl]ethyl]-N-hydroxyacetamide]	–	–	< 40%	inhibition at 10 µM [1, 3]: 100%
CCOC(=O)N(O)C(C)c1cccc(Nc2ccccc2-c2n[nH]c(=O)o2)c1Cl (stereo not shown) [Example 15, Ethyl ester of [1-[2-chloro-3-[[2-(4,5-dihydro-5-oxo-1,3,4-voxadiazol-2-yl)phenyl]amino]phenyl]-ethyl]hydroxycarbamic acid]	1090 nM	860 nM	–	–

Second part, led by results:

IC50 [1]	IC50 [2]	inhibition at 10 µM [2, 4]	SMILES	further results
9590 nM	1070 nM	–	CC(=O)N(O)C(C)c1cccc(Nc2ccccc2-c2n[nH]c(=S)o2)c1Cl (stereo not shown) [Example 7, N-[1-[3-[[2-(4,5-Dihydro-5-thioxo-1,3,4 oxadiazol-2-yl)phenyl]amino]-2-chlorophenyl]ethyl]-N-hydroxy Acetamide]	–
680 nM	1880 nM	–	CC(=O)N(O)C(C)c1cccc(Nc2ccccc2-c2n[nH]c(=O)o2)c1Cl (stereo not shown) [Example 13]	–
1870 nM	360 nM	–	CNC(=O)N(O)C(C)c1cccc(Nc2ccccc2-c2n[nH]c(=O)o2)c1Cl (stereo not shown) [Example 16]	–
–	–	< 40%	CC(=O)N(O)C(C)c1cccc(Nc2ccccc2-c2nnc(N)o2)c1Cl (stereo not shown) [Example 17, N-[1-[3-[[2-(5-Amino-1,3,4-oxadiazol-2-yl)phenyl]amino]-2-chlorophenyl]ethyl]-N-hydroxyacetamide]	inhibition at 10 µM [1, 3]: 100%
